The values below come from patent US5639603A, “Synthesizing and screening molecular diversity” (Affymax Technologies N.V., priority 1993, dated 1997).

Where a SMILES comes first, the peptide text is derived from it. Where no end group is shown, it is not given here. [ ]: non-standard residue; d: D form.

In the first experiment the test system is anti-dynorphin B mAb D32.39. Kind of experiment: flow cytometry (FACS) staining of beads with mAb D32.39 and phycoerythrin-conjugated second antibody. It is filed as binding, mouse. The note with it: 10 μm beads carrying peptide and 69-mer oligonucleotide tag; blank beads unstained. The procedure: The binding of mAb D32.39 to control beads and to the bead library was analyzed by flow cytometry. […] By contrast, only a small fraction of the encoded library bound D32.39. Analysis of 10^5 events indicated ~2% of the library stained above background levels. […] The amplification reactions contained dUTP and uracil DNA glycosidase to prevent carryover contamination with soluble product from previous amplifications (see Longo et al., 1990, Gene 93: 125-128, incorporated herein by reference).
A portion of a library (typically 0.5-2 mg of beads) was suspended in blocking buffer (PBS, 1% BSA, 0.05% Tween-20) and incubated at room temperature for 1 hr. The beads were pelleted by centrifugation and resuspended in a solution of mAb D32.39 ([…] in blocking buffer). The suspension was incubated on ice for 30 min., pelleted by centrifugation, and washed with blocking buffer. The beads were then suspended in a solution of phycoerythrin-conjugated goat anti-mouse antibody (Molecular Probes) for 20 min. on ice. The beads were washed in blocking buffer and diluted in PBS for delivery into the fluorescence activated cell sorting (FACS) instrument (Becton Dickinson FACStar Plus). Beads which had bound the mAb D32.39 were identified by their acquired fluorescence. Individual beads from both the most brightly stained 0.17% of the library and from the region having the lowest fluorescence (ca. 98%) were sorted into PCR microfuge vials. Specific binding of D32.39 to the beads was blocked by preincubation of the mAb with the soluble peptide Ac-RQFKVVT-OH (SEQ ID NO:2) at a final concentration of 10 μM.
For the compound “RQFKVVT (RQFKVVT-NH2) [H-Arg-Gln-Phe-Lys-Val-Val-Thr-NH2, C-terminal seven amino acid fragment of the opioid peptide dynorphin B; positive control]”, the “staining by mAb D32.39 of beads carrying the sequence” value was “strongly stained”.

The experiment is the same for the next values; noted with them: flow cytometry; soluble peptide at final concentration 10 μM.
Regarding “RQFKVVT (RQFKVVT-NH2) [H-Arg-Gln-Phe-Lys-Val-Val-Thr-NH2, C-terminal seven amino acid fragment of the opioid peptide dynorphin B; positive control]”, the “blocking of D32.39 binding to library beads by preincubating the mAb with soluble peptide” value is on record as “completely blocked”.
In the case of `CC(=O)N[C@@H](CCCNC(=N)N)C(=O)N[C@@H](CCC(N)=O)C(=O)N[C@@H](Cc1ccccc1)C(=O)N[C@@H](CCCCN)C(=O)N[C@H](C(=O)N[C@H](C(=O)N[C@H](C(=O)O)[C@@H](C)O)C(C)C)C(C)C` [Ac-RQFKVVT-OH] (Ac-RQFKVVT-OH), the “blocking of D32.39 binding to library beads by preincubating the mAb with soluble peptide” value is “blocked”.

In another experiment the target is anti-dynorphin B mAb D32.39.
Assay: not given
Particulars: soluble hepta-peptide; see Cull et al.; cited from earlier work.
What is called Kd is the constant that tells how readily two partners part at equilibrium. On to “RQFKVVT (RQFKVVT-NH2) [H-Arg-Gln-Phe-Lys-Val-Val-Thr-NH2, C-terminal seven amino acid fragment of the opioid peptide dynorphin B; positive control]”, for which the Kd is about 1 nM.

The target of a further experiment is monoclonal antibody D32.39. Kind of experiment: competition binding experiment with radiolabelled tracer peptide on D32.39-coated wells. Particulars: competition with 33P-labelled tracer LRRASLGGGRRQFKVVT 50 pM; wells coated with D32.39 0.1 μg/mL; 2 hr at 4° C.; IC50 taken as close to Kd. The procedure:
The binding affinities of various peptides for the monoclonal antibody D32.39 were measured in a competition binding experiment. […] The peptide mixtures were added to polystyrene wells coated with D32.39 (0.1 μg/mL). Samples were incubated 2 hr. at 4° C., the wells washed with PBS, and the radioactivity associated with each well was counted and used to generate a competitive binding curve. Under the conditions of the assay the IC50 should be close to the dissociation constant (Kd) for the peptide.
KQFKVTQT: binding was put at a Kd of 410 nM.
The compound TTRRFRVT registered a Kd of 4.3 nM.
In turn, QQFKVVQT registered a Kd of 370 nM.
Regarding `CC(=O)N[C@@H](CCCCN)C(=O)N[C@@H](CCC(N)=O)C(=O)N[C@@H](Cc1ccccc1)C(=O)N[C@@H](CCCCN)C(=O)N[C@H](C(=O)N[C@H](C(=O)N[C@@H](CCCCN)C(=O)N[C@H](C(=O)O)[C@@H](C)O)[C@@H](C)O)C(C)C` [KQFKVTKT] (Ac-KQFKVTKT-OH), the Kd was 340 nM.
`CC(=O)N[C@@H](CCC(N)=O)C(=O)N[C@@H](C(=O)N[C@@H](CCCNC(=N)N)C(=O)N[C@@H](CCC(N)=O)C(=O)N[C@@H](Cc1ccccc1)C(=O)N[C@@H](CCCCN)C(=O)N[C@H](C(=O)N[C@H](C(=O)O)[C@@H](C)O)[C@@H](C)O)C(C)C` [QvRQFKTT] (Ac-Q[dV]RQFKTT-OH): binding was put at a Kd of 16 nM.
With `CC(=O)N[C@H](C(=O)N[C@@H](Cc1ccccc1)C(=O)N[C@@H](CCCNC(=N)N)C(=O)N[C@@H](CCC(N)=O)C(=O)N[C@@H](Cc1ccccc1)C(=O)N[C@@H](CCCCN)C(=O)N[C@H](C(=O)N[C@H](C(=O)O)[C@@H](C)O)C(C)C)[C@@H](C)O` [TFRQFKVT] (Ac-TFRQFKVT-OH), binding was characterised by a dissociation constant (Kd) of 0.29 nM.
Compound `CC(=O)N[C@H](C(=O)N[C@@H](CCC(N)=O)C(=O)N[C@@H](Cc1ccccc1)C(=O)N[C@@H](CCCCN)C(=O)N[C@H](C(=O)N[C@H](C(=O)N[C@@H](CCCCN)C(=O)N[C@H](C(=O)O)[C@@H](C)O)[C@@H](C)O)C(C)C)[C@@H](C)O` [TQFKVTKT] (Ac-TQFKVTKT-OH) displayed a dissociation constant Kd of 560 nM.
Same read-out and setting: in the case of RQFRTVQT it was 76 nM; in that of TVRQFKTT, 8.8 nM; in that of `CC(=O)N[C@H](C(=O)N[C@@H](Cc1ccccc1)C(=O)N[C@@H](CCCNC(=N)N)C(=O)N[C@@H](C(=O)N[C@@H](Cc1ccccc1)C(=O)N[C@@H](CCCNC(=N)N)C(=O)N[C@H](C(=O)N[C@H](C(=O)O)[C@@H](C)O)C(C)C)C(C)C)[C@@H](C)O` [TFRvFRVT] (Ac-TFR[dV]FRVT-OH), 1400 nM.
